Assay results from ChEMBL document CHEMBL3885881, “DrugMatrix”.

Organism: Rattus norvegicus
Assay: DrugMatrix - Regimen: Daily Repeat
Type: toxicity, organism-based, Sprague-Dawley
Set-up: regimen Daily Repeat, gender Male, age 6-8 weeks
Conditions: in vivo, po, route oral GAVAGE, vehicle .5 % CMC; for ABSOLUTE BASOPHIL / ABSOLUTE EOSINOPHIL / ABSOLUTE LYMPHOCYTE / ABSOLUTE MONOCYTE / ABSOLUTE SEGMENTED NEUTROPHIL / BASOPHIL / EOSINOPHIL / ERYTHROCYTE COUNT / HEMATOCRIT / HEMOGLOBIN / LEUKOCYTE COUNT / LYMPHOCYTE / MEAN CORPUSCULAR HEMOGLOBIN / MEAN CORPUSCULAR HEMOGLOBIN CONCENTRATION / MEAN CORPUSCULAR VOLUME / MONOCYTE / NEUTROPHIL / NUCLEATED RED BLOOD CELLS / PLATELET COUNT: tissue Blood; for ALANINE AMINOTRANSFERASE / ALBUMIN / ALKALINE PHOSPHATASE / ASPARTATE AMINOTRANSFERASE / BLOOD UREA NITROGEN / CARBON DIOXIDE / CHLORIDE / CHOLESTEROL / CREATINE PHOSPHOKINASE / CREATININE / GLUCOSE / LACTATE DEHYDROGENASE / LIPASE / PHOSPHORUS / POTASSIUM / SODIUM / TOTAL BILIRUBIN / TOTAL PROTEIN / URIC ACID: tissue Plasma
[1] = 10 mg/kg, 72 h, dose level Low, time 3 day
[2] = 10 mg/kg, 120 h, dose level Low, time 5 day
[3] = 1750 mg/kg, 72 h, dose level High, time 3 day
[4] = 1750 mg/kg, 120 h, dose level High, time 5 day

CCOC(=O)[C@H](CCc1ccccc1)N[C@H]1CCc2ccccc2N(CC(=O)O)C1=O [BENAZEPRIL]
ABSOLUTE BASOPHIL [1]: 0 CELLS/uL | ABSOLUTE EOSINOPHIL [1]: 0 CELLS/uL | ABSOLUTE LYMPHOCYTE [1]: 8474.33 CELLS/uL | ABSOLUTE MONOCYTE [1]: 40.67 CELLS/uL | ABSOLUTE SEGMENTED NEUTROPHIL [1]: 418.33 CELLS/uL | BASOPHIL [1]: 0% | EOSINOPHIL [1]: 0% | ERYTHROCYTE COUNT [1]: 5.44 x10E6/uL | HEMATOCRIT [1]: 35.27% | HEMOGLOBIN [1]: 14.3 G/DL | LEUKOCYTE COUNT [1]: 8.93 x10E3/uL | LYMPHOCYTE [1]: 94.33% | MEAN CORPUSCULAR HEMOGLOBIN [1]: 26.27 pg | MEAN CORPUSCULAR HEMOGLOBIN CONCENTRATION [1]: 40.53 G/DL | MEAN CORPUSCULAR VOLUME [1]: 64.8 fL | MONOCYTE [1]: 0.67% | NEUTROPHIL [1]: 5% | NUCLEATED RED BLOOD CELLS [1]: 0 /100WBC | PLATELET COUNT [1]: 1050 x10E3/uL | ALANINE AMINOTRANSFERASE [1]: 47.33 u/L | ALBUMIN [1]: 4.6 G/DL | ALKALINE PHOSPHATASE [1]: 428.33 u/L | ASPARTATE AMINOTRANSFERASE [1]: 84.67 u/L | BLOOD UREA NITROGEN [1]: 18 mg/dL | CARBON DIOXIDE [1]: 34.33 mmol/L | CHLORIDE [1]: 99 MEQ/L | CHOLESTEROL [1]: 78.67 mg/dL | CREATINE PHOSPHOKINASE [1]: 322 u/L | CREATININE [1]: 0.22 mg/dL | GLUCOSE [1]: 135.33 mg/dL | LACTATE DEHYDROGENASE [1]: 124.67 u/L | LIPASE [1]: 10 u/L | PHOSPHORUS [1]: 10.63 mg/dL | POTASSIUM [1]: 6.53 MEQ/L | SODIUM [1]: 145.23 MEQ/L | TOTAL BILIRUBIN [1]: 0.2 mg/dL | TOTAL PROTEIN [1]: 6.57 G/DL | URIC ACID [1]: 0.83 mg/dL | ABSOLUTE BASOPHIL [2]: 0 CELLS/uL | ABSOLUTE EOSINOPHIL [2]: 90 CELLS/uL | ABSOLUTE LYMPHOCYTE [2]: 12851.33 CELLS/uL | ABSOLUTE MONOCYTE [2]: 265.67 CELLS/uL | ABSOLUTE SEGMENTED NEUTROPHIL [2]: 1459.67 CELLS/uL | BASOPHIL [2]: 0% | EOSINOPHIL [2]: 0.67% | ERYTHROCYTE COUNT [2]: 5.31 x10E6/uL | HEMATOCRIT [2]: 33.43% | HEMOGLOBIN [2]: 13.47 G/DL | LEUKOCYTE COUNT [2]: 14.67 x10E3/uL | LYMPHOCYTE [2]: 88% | MEAN CORPUSCULAR HEMOGLOBIN [2]: 25.33 pg | MEAN CORPUSCULAR HEMOGLOBIN CONCENTRATION [2]: 40.27 G/DL | MEAN CORPUSCULAR VOLUME [2]: 62.9 fL | MONOCYTE [2]: 2% | NEUTROPHIL [2]: 9.33% | NUCLEATED RED BLOOD CELLS [2]: 0 /100WBC | PLATELET COUNT [2]: 1304.67 x10E3/uL | ALANINE AMINOTRANSFERASE [2]: 52.67 u/L | ALBUMIN [2]: 4.2 G/DL | ALKALINE PHOSPHATASE [2]: 304.33 u/L | ASPARTATE AMINOTRANSFERASE [2]: 76 u/L | BLOOD UREA NITROGEN [2]: 18 mg/dL | CARBON DIOXIDE [2]: 32 mmol/L | CHLORIDE [2]: 102 MEQ/L | CHOLESTEROL [2]: 73.67 mg/dL | CREATINE PHOSPHOKINASE [2]: 234.67 u/L | CREATININE [2]: 0.15 mg/dL | GLUCOSE [2]: 160.67 mg/dL | LACTATE DEHYDROGENASE [2]: 106.67 u/L | LIPASE [2]: 9 u/L | PHOSPHORUS [2]: 13.27 mg/dL | POTASSIUM [2]: 7.06 MEQ/L | SODIUM [2]: 144.9 MEQ/L | TOTAL BILIRUBIN [2]: 0.2 mg/dL | TOTAL PROTEIN [2]: 6.27 G/DL | URIC ACID [2]: 1.57 mg/dL | ABSOLUTE BASOPHIL [3]: 0 CELLS/uL | ABSOLUTE EOSINOPHIL [3]: 139.33 CELLS/uL | ABSOLUTE LYMPHOCYTE [3]: 16004 CELLS/uL | ABSOLUTE MONOCYTE [3]: 0 CELLS/uL | ABSOLUTE SEGMENTED NEUTROPHIL [3]: 1823.33 CELLS/uL | BASOPHIL [3]: 0% | EOSINOPHIL [3]: 0.67% | ERYTHROCYTE COUNT [3]: 5.02 x10E6/uL | HEMATOCRIT [3]: 32.27% | HEMOGLOBIN [3]: 13.23 G/DL | LEUKOCYTE COUNT [3]: 17.97 x10E3/uL | LYMPHOCYTE [3]: 89.33% | MEAN CORPUSCULAR HEMOGLOBIN [3]: 26.43 pg | MEAN CORPUSCULAR HEMOGLOBIN CONCENTRATION [3]: 41.03 G/DL | MEAN CORPUSCULAR VOLUME [3]: 64.37 fL | MONOCYTE [3]: 0% | NEUTROPHIL [3]: 10% | NUCLEATED RED BLOOD CELLS [3]: 0 /100WBC | PLATELET COUNT [3]: 1175.67 x10E3/uL | ALANINE AMINOTRANSFERASE [3]: 47.67 u/L | ALBUMIN [3]: 4.13 G/DL | ALKALINE PHOSPHATASE [3]: 388 u/L | ASPARTATE AMINOTRANSFERASE [3]: 83.33 u/L | BLOOD UREA NITROGEN [3]: 23.67 mg/dL | CARBON DIOXIDE [3]: 28.33 mmol/L | CHLORIDE [3]: 101 MEQ/L | CHOLESTEROL [3]: 63.67 mg/dL | CREATINE PHOSPHOKINASE [3]: 244.67 u/L | CREATININE [3]: 0.24 mg/dL | GLUCOSE [3]: 152.33 mg/dL | LACTATE DEHYDROGENASE [3]: 297.33 u/L | LIPASE [3]: 9.33 u/L | PHOSPHORUS [3]: 11.27 mg/dL | POTASSIUM [3]: 7.42 MEQ/L | SODIUM [3]: 140.93 MEQ/L | TOTAL BILIRUBIN [3]: 0.23 mg/dL | TOTAL PROTEIN [3]: 5.73 G/DL | URIC ACID [3]: 1.73 mg/dL | ABSOLUTE BASOPHIL [4]: 0 CELLS/uL | ABSOLUTE EOSINOPHIL [4]: 0 CELLS/uL | ABSOLUTE LYMPHOCYTE [4]: 16017 CELLS/uL | ABSOLUTE MONOCYTE [4]: 660 CELLS/uL | ABSOLUTE SEGMENTED NEUTROPHIL [4]: 1423 CELLS/uL | BASOPHIL [4]: 0% | EOSINOPHIL [4]: 0% | ERYTHROCYTE COUNT [4]: 5.54 x10E6/uL | HEMATOCRIT [4]: 33.43% | HEMOGLOBIN [4]: 13.43 G/DL | LEUKOCYTE COUNT [4]: 18.1 x10E3/uL | LYMPHOCYTE [4]: 89.33% | MEAN CORPUSCULAR HEMOGLOBIN [4]: 24.3 pg | MEAN CORPUSCULAR HEMOGLOBIN CONCENTRATION [4]: 40.2 G/DL | MEAN CORPUSCULAR VOLUME [4]: 60.5 fL | MONOCYTE [4]: 3.67% | NEUTROPHIL [4]: 7% | NUCLEATED RED BLOOD CELLS [4]: 0.33 /100WBC | PLATELET COUNT [4]: 1330 x10E3/uL | ALANINE AMINOTRANSFERASE [4]: 49.67 u/L | ALBUMIN [4]: 4.03 G/DL | ALKALINE PHOSPHATASE [4]: 380.33 u/L | ASPARTATE AMINOTRANSFERASE [4]: 85.33 u/L | BLOOD UREA NITROGEN [4]: 44 mg/dL | CARBON DIOXIDE [4]: 30 mmol/L | CHLORIDE [4]: 104.33 MEQ/L | CHOLESTEROL [4]: 74.67 mg/dL | CREATINE PHOSPHOKINASE [4]: 585 u/L | CREATININE [4]: 0.27 mg/dL | GLUCOSE [4]: 150.67 mg/dL | LACTATE DEHYDROGENASE [4]: 227 u/L | LIPASE [4]: 9.33 u/L | PHOSPHORUS [4]: 10.53 mg/dL | POTASSIUM [4]: 6.39 MEQ/L | SODIUM [4]: 143.17 MEQ/L | TOTAL BILIRUBIN [4]: 0.2 mg/dL | TOTAL PROTEIN [4]: 6 G/DL | URIC ACID [4]: 1.53 mg/dL
